The text below walks through data of patent US7226945B2 (AstraZeneca AB, priority 2000, dated 2007).

Where two headings read alike, the source gives them in different places.

One test addresses ER. Description: Scatchard analysis of ligand binding affinity on receptor preparations. To be noted: Scatchard analysis at chosen receptor dilutions; receptor subtype not specified; read-out: KD for [125I]-estradiol. On the procedure:
(§1) The volume of receptor-programmed reticulocyte lysate to be added to the binding assay was determined independently from two measurements made on each batch of receptor prepared. First, Kis were determined for standard compounds using a series of dilutions of the receptor preparation. Scatchard analysis of ligand binding affinity was performed at the receptor dilutions that produced reported Kis for these compounds and an acceptable signal:noise ratio (˜10).

A further test has as its target T1, ER-β (Homo sapiens, UniProt Q92731).
T1 construct: made in house; host or cells: cell-free: TNT T7 Quick-Coupled rabbit reticulocyte lysate (Promega L1170)
Description: Estrogen receptor binding measurement (competition with [125I]-estradiol), ER-β; tables head the values "FP β-ER Ki". On the procedure:
(§2) Receptor protein was prepared by in vitro transcription and translation of these plasmids using the TNT T7 Quick-Coupled reticulocyte lysate system (Promega Cat.#L1170). […] Programmed lysate was then aliquotted and stored frozen at −80° C.
(§3) Compounds were tested in duplicate at half-log concentrations ranging from 10 pM to 3 μM. Compounds were prepared as 1 mM stocks in DMSO, then diluted in the binding-assay buffer (in mM: 20 HEPES, 150 NaCl, 1 EDTA, 6 monothioglycerol and 10 Na2MoO4,; 10% wt/vol glycerol, and pH=7.9) to a series of […] concentrated, 20 μL aliquots in a 96-well plate. Receptor aliquots were thawed on ice, and appropriately diluted (see below) in binding assay buffer. Diluted receptor (30 μL/each) was added to each well. […] Plates containing the final assay mixture were mixed on a shaker for 2 min and incubated overnight (˜16 h) at 4° C.
(§4) Receptor-bound and unbound radioligand was separated by filtration over sephadex columns. Columns (45 μL bed volume) were prepared by adding dry column media (Pharmacia Cat#G-25) to 96-well column templates (Millipore MultiScreen Plates Cat#MAHVN4510). Columns were then saturated with 300 μL of binding-assay buffer and stored at 4° C. Prior to use, stored columns were spun for 10 minutes at 2000 RPM, then washed twice with 200 μL of fresh binding buffer. The binding-assay mixtures (50 μL/each) were then applied to the columns, and an additional elution volume of 35 μL was immediately applied to the column. Receptor-bound radioligand was then eluted from the column by centrifugation for 10 minutes at 2000 RPM. A scintillation cocktail (145 μL) was added to the eluted radioligand/receptor complex, and radio-label was measured by liquid scintillation counting.
as §1

For a further test, the target named is T2, ER-α (Homo sapiens, UniProt P03372).
T2 construct: made in house; host or cells: cell-free: TNT T7 Quick-Coupled rabbit reticulocyte lysate (Promega L1170)
T2 sequence (P03372 1-595): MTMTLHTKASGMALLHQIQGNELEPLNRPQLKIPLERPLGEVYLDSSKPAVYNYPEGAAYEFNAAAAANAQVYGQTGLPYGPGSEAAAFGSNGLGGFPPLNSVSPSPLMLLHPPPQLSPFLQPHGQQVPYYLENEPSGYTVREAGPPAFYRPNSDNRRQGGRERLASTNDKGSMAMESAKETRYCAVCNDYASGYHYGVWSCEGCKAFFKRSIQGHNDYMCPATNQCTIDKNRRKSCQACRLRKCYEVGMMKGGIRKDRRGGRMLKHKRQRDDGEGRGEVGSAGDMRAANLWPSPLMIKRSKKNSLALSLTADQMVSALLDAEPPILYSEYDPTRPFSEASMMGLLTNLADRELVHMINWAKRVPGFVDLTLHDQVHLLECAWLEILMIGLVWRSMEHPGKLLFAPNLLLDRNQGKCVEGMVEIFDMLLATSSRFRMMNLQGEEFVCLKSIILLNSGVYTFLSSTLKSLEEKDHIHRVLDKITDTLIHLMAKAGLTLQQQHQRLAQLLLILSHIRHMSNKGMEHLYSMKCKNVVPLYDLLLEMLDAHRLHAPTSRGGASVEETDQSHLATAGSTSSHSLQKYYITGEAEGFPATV
Description: Estrogen receptor binding measurement (competition with [125I]-estradiol), ER-α; tables head the values "FP α-ER Ki". On the procedure:
as §2, §3, §4, §1

T1 sequence (Q92731 54-530 limits assumed): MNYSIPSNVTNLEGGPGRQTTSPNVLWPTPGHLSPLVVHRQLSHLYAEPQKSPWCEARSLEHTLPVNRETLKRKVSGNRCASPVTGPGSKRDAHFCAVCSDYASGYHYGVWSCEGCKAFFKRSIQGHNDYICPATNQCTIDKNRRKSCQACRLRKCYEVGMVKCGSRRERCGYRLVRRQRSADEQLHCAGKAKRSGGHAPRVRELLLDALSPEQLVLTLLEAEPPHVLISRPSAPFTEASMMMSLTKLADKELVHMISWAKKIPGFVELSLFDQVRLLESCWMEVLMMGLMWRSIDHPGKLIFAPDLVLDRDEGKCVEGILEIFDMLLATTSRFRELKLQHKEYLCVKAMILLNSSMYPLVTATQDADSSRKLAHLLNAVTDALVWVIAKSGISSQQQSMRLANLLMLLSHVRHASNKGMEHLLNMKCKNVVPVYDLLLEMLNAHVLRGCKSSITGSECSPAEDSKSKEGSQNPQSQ

In general, Kd refers to the equilibrium constant for the complex coming apart. On to `C[C@]12CC[C@@H]3c4ccc(O)cc4CC[C@H]3[C@@H]1C[C@@H](I)[C@@H]2O` [[^125I]-estradiol, [^125I]-16α-iodo-3,17β-estradiol], for which the dissociation constant (Kd) on ER fell in the range of 0.1 to 1 nM.
For orientation: Ki means the dissociation constant of the complex between target and ligand, obtained from inhibition or displacement. Regarding `O=c1c(-c2ccc(O)cc2)coc2cc(O)cc(Br)c12` [Example 5, 5-Bromo-7-hydroxy-3-(4-hydroxyphenyl)-4-oxo-4H-1-benzopyran], the Selectivity on ER-β (ER-α Ki / ER-β Ki) is given as 90. For the same compound, the inhibition constant (Ki) on ER-β (read-out: FP β-ER Ki) came to 2.8 nM; at ER-α (read-out: FP α-ER Ki), 251 nM.
For the compound `CSc1cc(O)cc2occ(-c3ccc(O)cc3)c(=O)c12` [Example 8, 7-Hydroxy-3-(4-hydroxyphenyl)-5-methylthio-4-oxo-4H-1-benzopyran], the Selectivity on ER-β (ER-α Ki / ER-β Ki) was 7. The Ki at ER-β (read-out: FP β-ER Ki) came out at 84 nM; on ER-α (read-out: FP α-ER Ki) it was 563 nM.
The like results for `O=c1c(-c2ccc(O)cc2)coc2cc(O)cc(I)c12` [Example 6, 7-Hydroxy-3-(4-hydroxyphenyl)-5-iodo-4-oxo-4H-1-benzopyran] were, in that order, 38, 3.9 nM and 147 nM.
The like results for `Oc1ccc(C2COc3cc(O)cc(Cl)c3C2)cc1` (stereo not shown) [Example 10, 5-Chloro-7-hydroxy-3-(4 hydroxyphenyl)chroman] were, in that order, 6.4, 2 nM and 13 nM.
In the same order, the values of `O=c1oc2cc(O)cc(Cl)c2cc1-c1ccc(O)cc1` [Example 9, 5-Chloro-7-hydroxy-3-(4-hydroxyphenyl)coumarin] are 35, 1.8 nM and 62 nM.
As to `Cc1oc2cc(O)cc(Cl)c2c(=O)c1-c1ccc(O)cc1` [Example 11], the “FP Sel. Ratio” value on ER-β (ER-α Ki / ER-β Ki) is reported as 32.8. Also, the inhibition constant (Ki) was 46.1 nM at ER-β (LOQ = 0.01 nM, upper limit 1000 nM, read-out: FP ER-β Ki) and at least 1000 nM at ER-α (LOQ = 0.01 nM, upper limit 1000 nM, read-out: FP ER-α Ki).
The compound `O=c1c(-c2ccc(O)cc2)coc2cc(O)cc(Cl)c12` [Example 1, 5-Chloro-7-hydroxy-3-(4-hydroxyphenyl)-4-oxo-4H-1 benzopyran] registered a Selectivity on ER-β (ER-α Ki / ER-β Ki) of 139. Besides, the inhibitory constant (Ki) at ER-β (read-out: FP β-ER Ki) amounted to 4.3 nM; on ER-α (read-out: FP α-ER Ki), 600 nM.
In the case of `N#Cc1cc(O)cc2occ(-c3ccc(O)cc3)c(=O)c12` [Example 7, 5-Cyano-7-hydroxy-3-(4-hydroxyphenyl)-4-oxo-4H-1-benzopyran], on ER-β (ER-α Ki / ER-β Ki), the Selectivity is given as above 39. The inhibition constant (Ki) at ER-β (read-out: FP β-ER Ki) was 58 nM; on ER-α (read-out: FP α-ER Ki) it was above 1000 nM.
The like results for `O=c1c(-c2ccc(O)cc2Cl)coc2cc(O)cc(Cl)c12` [Example 2, 5-Chloro-3-(2-chloro-4-hydroxyphenyl)-7-hydroxy-4-oxo-4H-1-benzopyran] were, in that order, 19, 16 nM and 300 nM.
The like results for `Cc1cc(O)ccc1-c1coc2cc(O)cc(Cl)c2c1=O` [Example 3, 5-chloro-7-hydroxy-3-(4-hydroxy-2-methylphenyl)-4-oxo-4H-1-benzopyran] were, in that order, 18, 50 nM and 900 nM.
Compound `O=c1c(-c2ccc(O)cc2)coc2cc(O)cc(F)c12` [Example 4, 5-Fluoro-7-hydroxy-3-(4-hydroxyphenyl)-4-oxo-4H-1-benzopyran] yielded a Selectivity on ER-β (ER-α Ki / ER-β Ki) above 56. In addition, the inhibition constant (Ki) is 39 nM on ER-β (read-out: FP β-ER Ki) and above 2200 nM at ER-α (read-out: FP α-ER Ki).
